Laboratory results as given in patent US7399770B2, “Thieno-imino acid derivatives for use as matrix metalloproteinase inhibitors” (SANOFI-AVENTIS Deutschland GmbH, priority 2004, dated 2008).

Assays:
Type in all cases: biochemical
Settings in all cases: fluorogenic substrate, pH 7.5
[1] = biological target: T1, catalytic domain of human collagenase-1 (MMP-1) (Homo sapiens, UniProt P03956); assay: enzymatic activity of the catalytic domain of human collagenase-1 (MMP-1)
T1 construct: Determining the enzymatic activity of the catalytic domain of human collagenase-1 (MMP-1); purchased Biocol, Potsdam MMP1
T1 sequence (P03956 100-269 limits assumed): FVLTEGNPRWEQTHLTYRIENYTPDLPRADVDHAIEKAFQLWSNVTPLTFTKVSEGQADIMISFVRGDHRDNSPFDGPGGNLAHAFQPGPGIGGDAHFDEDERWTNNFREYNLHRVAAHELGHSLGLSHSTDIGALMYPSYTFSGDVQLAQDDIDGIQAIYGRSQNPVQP
Method: Determining the enzymatic activity of the catalytic domain of human collagenase-1 (MMP-1).
(§1) Activation of the Proenzyme:
2 parts by volume of proenzyme are incubated, at 37° C. for 1 hour, with 1 part by volume of APMA solution. The APMA solution is prepared from a 10 mmol/l solution of p-aminophenylmercuric acetate in 0.1 mmol/l NaOH by diluting with 3 parts by volume of Tris/HCl buffer pH 7.5 (see below). The pH is adjusted to between 7.0 and 7.5 by adding 1 mmol/l HCl. After the enzyme has been activated, it is diluted with the Tris/HCl buffer down to a concentration of 2.5 μg/ml. In order to measure the enzyme activity, 10 μl of enzyme solution are incubated, for 15 minutes, with 10 μl of a 3% (v/v) buffered solution of dimethyl sulfoxide (reaction 1). […]
Both in the case of reaction 1 and in the case of reaction 2, the enzyme reaction is monitored by fluorescence spectroscopy (328 nm (extinction)/393 nm (emission)) after 10 μl of a 3% (v/v) aqueous solution of dimethyl sulfoxide which contains 0.3 mmol of the substrate/l has been added. The enzyme activity is expressed as increase in extinction/minute. The inhibitor effect is calculated as percentage inhibition in accordance with the following formula: % inhibition=100−[(increase in extinction/minute in reaction 2)/(increase in extinction/minute in reaction 1)×100]. […]

[2] = biological target: T2, catalytic domain of human gelatinase-A (MMP-2) (Homo sapiens, UniProt P08253); assay: enzymatic activity of the catalytic domain of human gelatinase-A (MMP-2)
T2 construct: Determining the enzymatic activity of the catalytic domain of human gelatinase-A (MMP-2); purchased INVITEK, Berlin 30 100 602
Method: Determining the enzymatic activity of the catalytic domain of human gelatinase-A (MMP-2).
as §1
2 parts by volume of proenzyme were incubated, at 37° C. for 0.5 hour, with 1 part by volume of APMA solution. The APMA solution was prepared from a 10 mmol/l p-aminophenylmercuric acetate solution in 0.1 mmol/l NaOH by diluting with 3 parts by volume of Tris/HCl buffer pH 7.5 (see below). The pH was adjusted to between 7.0 and 7.5 by adding 1 mmol HCl/l. After the enzyme had been activated, it was diluted with the Tris/HCl buffer down to a concentration of 0.83 μg/ml. In order to measure the enzyme activity, 10 μl of enzyme solution were incubated, for 15 minutes, with 10 μl of a 3% (v/v) buffered solution of dimethyl sulfoxide (reaction 1). […]
Both in the case of reaction 1 and in the case of reaction 2, the enzyme reaction was monitored by fluorescence spectroscopy (328 nm (extinction)/393 nm (emission)) after 10 μl of a 3% (v/v) aqueous solution of dimethyl sulfoxide containing 0.3 mmol of the substrate/l had been added.
(§2) The enzyme activity was expressed as increase in extinction/minute.
(§3) The inhibitor effect was calculated as a percentage inhibition in accordance with the following formula: % inhibition=100−[(increase in extinction/minute in reaction 2)/(increase in extinction/minute in reaction 1)×100]. […]

[3] = biological target: T3, catalytic domain of human stromelysin (MMP-3) (Homo sapiens, UniProt P08254); assay: enzymatic activity of the catalytic domain of human stromelysin (MMP-3)
T3 construct: catalytic domains of human stromelysin (MMP-3) and neutrophil collagenase (MMP-8); made in house
Method: (§4) Preparation, and determination of the enzymatic activity, of the catalytic domains of human stromelysin (MMP-3) and neutrophil collagenase (MMP-8).
(§5) The two enzymes, i.e. stromelysin (MMP-3) and neutrophil collagenase (MMP-8), were prepared in accordance with Ye et al. (Biochemistry; 31 (1992) pages 11231-11235). In order to measure the enzyme activity, or the enzyme inhibitor effect, 10 μl of enzyme solution were incubated, for 15 minutes, with 10 μl of a 3% (v/v) buffered solution of dimethyl sulfoxide which contained the enzyme inhibitor, where appropriate. After 10 μl of a 3% (v/v) aqueous solution of dimethyl sulfoxide containing 1 mmol of the substrate/l had been added, the enzyme reaction was monitored by fluorescence spectroscopy (328 nm (ex)/393 nm (em)).
(§6) The enzyme activity is expressed as increase in extinction/minute. The IC50 values listed in table 2 were determined as being those inhibitor concentrations which in each case led to a 50% inhibition of the enzyme.
(§7) The buffer solution contained 0.05% Brij (Sigma, Deisenhofen, Germany) and also 0.1 mol of Tris/HCl/l, 0.1 mol of NaCl/l, 0.01 mol of CaCl2/l and 0.1 mol of piperazine-N,N′-bis[2-ethanesulfonic acid]/l (pH=7.5). […]

[4] = biological target: T4, catalytic domain of human neutrophil collagenase (MMP-8) (Homo sapiens, UniProt P22894); assay: enzymatic activity of the catalytic domain of human neutrophil collagenase (MMP-8)
T4 construct: catalytic domains of human stromelysin (MMP-3) and neutrophil collagenase (MMP-8); made in house
Method: as §4, §5, §6, §7

[5] = biological target: T5, catalytic domain of human gelatinase-B (MMP-9) (Homo sapiens, UniProt P14780); assay: enzymatic activity of the catalytic domain of human gelatinase-B (MMP-9)
T5 construct: Determining the enzymatic activity of the catalytic domain of human gelatinase-B (MMP-9); purchased Roche, Mannheim 1 758 896
Method: Determining the enzymatic activity of the catalytic domain of human gelatinase-B (MMP-9).
as §1
2parts by volume of proenzyme were incubated, at 37° C. for 4 hours, with 1 part by volume of APMA solution. The APMA solution was prepared from a 10 mmol/l p-aminophenylmercuric acetate solution in 0.1 mmol/l NaOH by diluting with 3 parts by volume of Tris/HCl buffer, pH 7.5 (see below). The pH was adjusted to between 7.0 and 7.5 by adding 1 mmol/l HCl. After the enzyme had been activated, it was diluted with the Tris/HCl buffer down to a concentration of 4.2 mU/ml.
(§8) In order to measure the enzyme activity, 10 μl of enzyme solution were incubated, for 15 minutes, with 10 μl of a 3% (v/v) buffered solution of dimethyl sulfoxide (reaction 1). […]
Both in the case of reaction 1 and in the case of reaction 2, the enzyme reaction was monitored by fluorescence spectroscopy (328 nm (extinction)/393 nm (emission)) after 10 μl of a 3% (v/v) aqueous solution of dimethyl sulfoxide containing 0.15 mmol of the substrate/l had been added.
as §2, §3

[6] = biological target: T6, catalytic domain of human collagenase-3 (MMP-13) (Homo sapiens, UniProt P45452); assay: enzymatic activity of the catalytic domain of human collagenase-3 (MMP-13)
T6 construct: Determining the enzymatic activity of the catalytic domain of human collagenase-3 (MMP-13); purchased INVITEK, Berlin 30 100 803
Method: Determining the enzymatic activity of the catalytic domain of human collagenase-3 (MMP-13).
as §1
2 parts by volume of proenzyme were incubated, at 37° C. for 1.5 hours, with 1 part by volume of APMA solution. The APMA solution was prepared from a 10 mmol/l solution of p-aminophenylmercuric acetate in 0.1 mmol/l NaOH by diluting with 3 parts by volume of Tris/HCl buffer pH 7.5 (see below). The pH was adjusted to between 7.0 and 7.5 by adding 1 mmol/l HCl. After the enzyme had been activated, it was diluted with the Tris/HCl buffer down to a concentration of 1.67 μg/ml.
as §8
Both in the case of reaction 1 and in the case of reaction 2, the enzyme reaction was monitored by fluorescence spectroscopy (328 nm (extinction)/393 nm (emission)) after 10 μl of a 3% (v/v) aqueous solution of dimethyl sulfoxide containing 0.075 mmol of the substrate/l had been added. […]
as §3

T5 sequence (P14780 107-444 limits assumed): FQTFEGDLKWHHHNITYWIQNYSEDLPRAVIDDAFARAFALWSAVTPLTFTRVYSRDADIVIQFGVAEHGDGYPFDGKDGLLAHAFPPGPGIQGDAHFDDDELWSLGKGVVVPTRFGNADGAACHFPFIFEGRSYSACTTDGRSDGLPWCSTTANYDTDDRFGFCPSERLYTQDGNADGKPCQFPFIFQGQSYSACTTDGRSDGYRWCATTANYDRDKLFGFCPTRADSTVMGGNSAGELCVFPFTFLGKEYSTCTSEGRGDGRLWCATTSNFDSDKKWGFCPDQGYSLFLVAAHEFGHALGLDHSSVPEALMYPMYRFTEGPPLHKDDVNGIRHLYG
T2 sequence (P08253 110-465 limits assumed): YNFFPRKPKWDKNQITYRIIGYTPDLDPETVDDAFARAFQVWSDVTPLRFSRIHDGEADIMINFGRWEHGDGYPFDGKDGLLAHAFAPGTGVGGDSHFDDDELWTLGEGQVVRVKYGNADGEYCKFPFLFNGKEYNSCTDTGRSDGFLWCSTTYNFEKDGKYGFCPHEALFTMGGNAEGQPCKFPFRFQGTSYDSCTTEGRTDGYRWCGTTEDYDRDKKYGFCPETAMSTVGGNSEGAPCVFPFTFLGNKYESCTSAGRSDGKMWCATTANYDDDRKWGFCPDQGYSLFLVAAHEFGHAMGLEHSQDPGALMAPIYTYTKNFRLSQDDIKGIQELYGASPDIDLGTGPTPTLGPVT
T3 sequence (P08254 100-272 limits assumed): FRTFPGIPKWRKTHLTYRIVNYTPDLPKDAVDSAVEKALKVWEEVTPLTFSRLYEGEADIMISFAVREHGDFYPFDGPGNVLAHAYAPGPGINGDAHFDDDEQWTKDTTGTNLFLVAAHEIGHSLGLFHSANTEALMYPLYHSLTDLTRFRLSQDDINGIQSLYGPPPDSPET
T4 sequence (P22894 100-262 limits assumed): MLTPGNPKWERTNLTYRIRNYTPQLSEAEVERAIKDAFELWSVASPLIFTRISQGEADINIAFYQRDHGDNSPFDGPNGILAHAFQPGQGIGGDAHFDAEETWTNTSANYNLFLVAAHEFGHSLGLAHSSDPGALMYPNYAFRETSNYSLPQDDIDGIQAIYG

Question: Which IC50 [1] does the source give for `O=C(NO)C1c2c(sc3ccccc23)C(O)CN1S(=O)(=O)c1ccc(-c2ccc(Cl)cc2)cc1` (stereo not drawn) [Example 1, 2-(4′-Chlorobiphenyl-4-sulfonyl)-4-hydroxy-1,2,3,4-tetrahydrobenzo[4,5]thieno[3,2-c]pyridine-1-carboxylic acid hydroxyamide] here?
Answer: 700 nM

Question: And the IC50 [2]?
Answer: 2.5 nM

Question: And the IC50 [3]?
Answer: 70 nM

Question: And the IC50 [4]?
Answer: 13 nM

Question: What about the IC50 [5] of the same compound?
Answer: 3.5 nM

Question: And the IC50 [6]?
Answer: 6.3 nM
